Data published in the NIST ThermoML archive (doi:10.1021/je0501843).

Assay: molar heat capacity at constant volume; wn = mass fraction of the nth substance listed
Conditions: Fluid (supercritical or subcritical phases), Vacuum adiabatic calorimetry, w1 = 0.5001

FC(F)C(F)(F)F [pentafluoroethane] + FCF
Conditions	molar heat capacity at constant volume [J/K/mol]
363 K, 13894 kPa	70.07
364 K, 6970 kPa	80.93
364 K, 7223 kPa	79.29
364 K, 7494 kPa	80.29
364 K, 7828 kPa	75.98
364 K, 10192 kPa	72.66
364 K, 14207 kPa	69.59
365 K, 7077 kPa	80.93
365 K, 7344 kPa	79.26
365 K, 7632 kPa	79.75
365 K, 7982 kPa	75.67
365 K, 10427 kPa	72.54
365 K, 14520 kPa	69.04
366 K, 7184 kPa	80.58
366 K, 7465 kPa	80.45
366 K, 7771 kPa	80.4
366 K, 8137 kPa	76.08
366 K, 10664 kPa	73.17
366 K, 14835 kPa	69.94
367 K, 7291 kPa	80.32
367 K, 7587 kPa	79.46
367 K, 7907 kPa	79.31
367 K, 8294 kPa	74.79
367 K, 10900 kPa	72.03
367 K, 15148 kPa	69.1
368 K, 7397 kPa	79.17
368 K, 7708 kPa	77.58
368 K, 8044 kPa	77.88
368 K, 8449 kPa	74.12
368 K, 11133 kPa	71.25
368 K, 15462 kPa	68.32
369 K, 7504 kPa	79.62
369 K, 7831 kPa	78.35
369 K, 8183 kPa	78.65
369 K, 8605 kPa	76.18
369 K, 11369 kPa	72.83
369 K, 15777 kPa	69.74
370 K, 7612 kPa	79.45
370 K, 7953 kPa	77.86
370 K, 8323 kPa	77.55
370 K, 8762 kPa	76.14
370 K, 11608 kPa	72.92
370 K, 16094 kPa	69.84
371 K, 7719 kPa	78.97
371 K, 8075 kPa	77.56
371 K, 8460 kPa	76.45
371 K, 8917 kPa	74.86
371 K, 11844 kPa	72.52
371 K, 16410 kPa	69.31
372 K, 7825 kPa	78.44
372 K, 8198 kPa	77.29
372 K, 8601 kPa	75.95
372 K, 9073 kPa	74.57
372 K, 12081 kPa	71.78
372 K, 16724 kPa	69.08
373 K, 7931 kPa	77.94
373 K, 8321 kPa	76.93
373 K, 8740 kPa	76.42
373 K, 9230 kPa	74.03
373 K, 12318 kPa	72.32
373 K, 17037 kPa	69.04
374 K, 8039 kPa	79.02
374 K, 8445 kPa	77.8
374 K, 8878 kPa	77.52
374 K, 9389 kPa	74.39
374 K, 12556 kPa	73.35
374 K, 17355 kPa	69.94
375 K, 8147 kPa	78.2
375 K, 8567 kPa	75.61
375 K, 9016 kPa	76.25
375 K, 9544 kPa	73.41
375 K, 12795 kPa	71.55
375 K, 17669 kPa	69.58
376 K, 8254 kPa	77.5
376 K, 8690 kPa	75.69
376 K, 9155 kPa	75.06
376 K, 9701 kPa	73.09
376 K, 13033 kPa	71.53
376 K, 17984 kPa	69.16
377 K, 8362 kPa	78.12
377 K, 8813 kPa	76.87
377 K, 9295 kPa	76.67
377 K, 9858 kPa	74.31
377 K, 13272 kPa	72.67
377 K, 18301 kPa	69.67
378 K, 8469 kPa	77.78
378 K, 8937 kPa	76.5
378 K, 9437 kPa	77.01
378 K, 10018 kPa	74.83
378 K, 13511 kPa	71.98
378 K, 18619 kPa	69.86
379 K, 8575 kPa	76.76
379 K, 9060 kPa	75.82
379 K, 9576 kPa	76.42
379 K, 10174 kPa	74.57
379 K, 13747 kPa	71.87
379 K, 18935 kPa	70.14
380 K, 8683 kPa	76.61
380 K, 9183 kPa	75.69
380 K, 9715 kPa	75.6
380 K, 10331 kPa	73.35
380 K, 13988 kPa	71.55
381 K, 8790 kPa	77.44
381 K, 9306 kPa	77.28
381 K, 9856 kPa	75.26
381 K, 10492 kPa	73.9
381 K, 14227 kPa	72.04
382 K, 8897 kPa	78.41
382 K, 9432 kPa	76.92
382 K, 9996 kPa	76.48
382 K, 10651 kPa	74.52
382 K, 14466 kPa	72.98
383 K, 9005 kPa	77.33
383 K, 9553 kPa	75.97
383 K, 10136 kPa	75.35
383 K, 10808 kPa	74.44
383 K, 14706 kPa	72.4
384 K, 9112 kPa	76.6
384 K, 9679 kPa	76.51
384 K, 10277 kPa	75.34
384 K, 10967 kPa	74.6
384 K, 14944 kPa	71.93
385 K, 9219 kPa	77.25
385 K, 9804 kPa	75.82
385 K, 10418 kPa	76.16
385 K, 11125 kPa	74.07
385 K, 15188 kPa	72.26
386 K, 9326 kPa	78.28
386 K, 9929 kPa	76.35
386 K, 10558 kPa	76.6
386 K, 11283 kPa	75.16
386 K, 15426 kPa	73.47
387 K, 9434 kPa	77.16
387 K, 10051 kPa	76.61
387 K, 10699 kPa	76.14
387 K, 11442 kPa	74.89
387 K, 15666 kPa	72.66
388 K, 9540 kPa	76.32
388 K, 10174 kPa	74.86
388 K, 10840 kPa	75.57
388 K, 11602 kPa	73.37
388 K, 15904 kPa	71.19
389 K, 9649 kPa	77.31
389 K, 10296 kPa	75.87
389 K, 10980 kPa	76.71
389 K, 11761 kPa	73.84
389 K, 16147 kPa	71.61
390 K, 9756 kPa	77.57
390 K, 10421 kPa	77.3
390 K, 11124 kPa	76.88
390 K, 11922 kPa	75.02
390 K, 16388 kPa	72.19
391 K, 9862 kPa	77.21
391 K, 10547 kPa	76.53
391 K, 11263 kPa	76.5
391 K, 12081 kPa	74.96
391 K, 16627 kPa	71.79
392 K, 9969 kPa	77.4
392 K, 10670 kPa	75.59
392 K, 11403 kPa	75.77
392 K, 12239 kPa	73.58
392 K, 16868 kPa	71.21
393 K, 10077 kPa	78.13
393 K, 10795 kPa	76.57
393 K, 11546 kPa	75.66
393 K, 12400 kPa	74.26
393 K, 17110 kPa	71.47
394 K, 10185 kPa	78.09
394 K, 10920 kPa	77.19
394 K, 11688 kPa	76.6
394 K, 12560 kPa	75.24
394 K, 17351 kPa	71.82
395 K, 10292 kPa	77.54
395 K, 11045 kPa	76.74
395 K, 11829 kPa	75.92
395 K, 12720 kPa	73.89
395 K, 17590 kPa	71.67
396 K, 10400 kPa	77.68
396 K, 11168 kPa	76.85
396 K, 11972 kPa	76.16
396 K, 12880 kPa	73.78
396 K, 17831 kPa	71.16
397 K, 10508 kPa	78.41
397 K, 11292 kPa	76.06
397 K, 12113 kPa	76.4
397 K, 13040 kPa	74.36
397 K, 18073 kPa	71.18
398 K, 10616 kPa	78.25
398 K, 11415 kPa	76.66
398 K, 12256 kPa	75.92
398 K, 13199 kPa	74.81
398 K, 18315 kPa	72.43
399 K, 10723 kPa	77.16
399 K, 11538 kPa	76.8
399 K, 12395 kPa	76.53
399 K, 13361 kPa	74.08
399 K, 18556 kPa	72.11
